Data on 7 molecules can be found in patent US20240425454A1, “IONIZABLE CATIONIC COMPOUND” (SEQIRUS INC., priority 2021, published 2024).

The data set can be described thus: TNS fluorescence pKa protocol on saRNA-LNP. In kind it is physicochemical. Particulars: saRNA-LNP containing the lipid, in a series of buffers; saRNA-LNP with the lipid; TNS 6 μM, pH 4 to 9.5, 25° C.; read-out: Apparent pKa. As to the method:
In a black 96-well plate, solutions of saRNA-LNP (final assay concentration 2 μg/mL total RNA) in a series of buffers ranging from pH 4 to 9.5 were prepared. Buffers between pH 4 to 7.6 were prepared from disodium phosphate and citric acid. Buffers from 7.8 to 9.5 were prepared by titrating tris buffer with 10 N sodium hydroxide. To each well was added 6-(p-Toluidino)-2-naphthalenesulfonic acid sodium salt (TNS) in water to a final assay concentration of 6 μM. The fluorescence was read on a plate reader at 25° C. with an excitation setting of 321 nm and an emission setting of 445 nm. The intensity values were plotted as a function of pH using GraphPad Prism and were fit with a sigmoidal dose response curve. The apparent pKa was determined as the EC50 of this curve where half of the ionizable amines are expected to be protonated (see FIG. 1).
On to `CCCCC(CCCC)OC(=O)CCCCCCCCC(CCCCCCCCC(=O)OC(CCCC)CCCC)OC(=O)CSCCN(C)C` [SL10], for which the pKa was found to be 5.8.

Turning to `CCCCC(CCCC)OC(=O)CCCCCCCCC(CCCCCCCCC(=O)OC(CCCC)CCCC)OC(=O)COCCCN(C)C` [SL09], the pKa stood at 7.1.

For the molecule `CCCCC(CCCC)OC(=O)CCCCCCCCC(CCCCCCCCC(=O)OC(CCCC)CCCC)OC(=O)COC1CCN(CCCO)CC1` [SL12], the pKa stood at 6.9.

For the molecule `CCCCC(CCCC)OC(=O)CCCCCCCCC(CCCCCCCCC(=O)OC(CCCC)CCCC)OC(=O)CSC1CCN(C)CC1` [SL07], the pKa came out at 6.1.

Consider `CCCCC(CCCC)OC(=O)CCCCCCCCC(CCCCCCCCC(=O)OC(CCCC)CCCC)OC(=O)COC1CCN(C)CC1` [SL06], for which the pKa amounted to 7.1.

For `CCCCC(CCCC)OC(=O)CCCCCCCCC(CCCCCCCCC(=O)OC(CCCC)CCCC)OC(=O)CSCCN(CC)CC` [SL11], the pKa is 5.6.

For the molecule `CCCCC(CCCC)OC(=O)CCCCCCCCC(CCCCCCCCC(=O)OC(CCCC)CCCC)OC(=O)COCCN(C)C` [SL08], the pKa was 7.
